The test system of series [1] is lung, breast cancer and ovarian cancer cell lines. In words: In vitro cytotoxic activity and combinations, cell line panel. As to conditions: agent alone. The format is cell-based, human. The method, then:
Cells were plated in a 96-well clear-bottomed plates (Corning) and treated with varying concentrations of compounds for 4 days. […] by using a CellTiter Glo luminescent cell viability assay kit (Promega) and measured using a Victor X3 plate reader (Perkin Elmer). The data were normalised to the control group (empty vector or DMSO). The IC50 values were defined as the concentration that causes 50% growth inhibition. IC50 values were calculated using a logistic nonlinear regression, model no. 203 with XL fit v4.2 (IDBS, Guldford, Surry, UK). All experimental points were setup in three replicate wells and independently performed in duplicate.
The effects of drug combinations were evaluated using Chou-Talalay median effect analysis (28). Cells were treated with each drug alone and in combination in two independent 96-well plates in a diagonal matrix format, and proliferation was measured by using a CellTiter Glo kit (Promega). Results were expressed as surviving fractions (fraction affected, Fa), based on the measured luminescence counts of treated samples, compared to that of untreated controls. […]
In vitro cytotoxic activity was evaluated for the 5T4-ADC or the auristatin payloads in combination with various standard of care (SOC) agents or selected signaling inhibitors in lung, breast cancer and ovarian cancer cell lines. […]

Series [2] has as its system more than 50 diverse human tumor cell lines. In words: Anti-proliferative effect in tumor cell lines. Format: cell-based.
A further series deals with MDA-MB-361. In words: Apoptosis induction. The format is cell-based. As to conditions: at 4 h, cleaved PARP.
Series [3] concerns subcutaneous MDA-468 tumors. In words: Xenograft efficacy. The format is in vivo, mouse. As to conditions: 5T4-ADC 2 mg/kg. The procedure: Female athymic nu/nu mice (18-23 g) were obtained from Charles River Laboratories, Wilmington, Mass. […] ADCs were administered based on mAb protein content at 2 or 3 mg Ab/kg on a Q4D×4 (every 4 day) schedule, with 8 to 10 mice per group. […] All procedures using mice were approved by the Pfizer Institutional Animal Care and Use Committee according to established guidelines. Time To Endpoint (time to no tumor or rate of tumor tripling) were used for comparison of drug-treated groups.

Series [4] has as its system panel of 81 protein kinases and Class III PI3K family hVps34. Briefly: Kinase screening services (Dundee University and Invitrogen). Format: biochemical. To be noted: 81 protein kinases and hVps34.
The conditions of series [5]: rat.
A short description of a further series: in vitro. To be noted: rat, plasma.
The test system of series [6] is human cancer cell lines with PI3K pathway aberrations. In words: Mouse xenograft models.

The structures appear in SMILES notation. Bounds are passed on as bounds.

With `C#Cc1cccc(Nc2ncnc3cc(OCCOC)c(OCCOC)cc23)c1` [Erlotinib], in series [1], the “sensitivity of most of the cell lines to the single agent” value was “relatively insensitive”.
`CN(C)C1CCN(C(=O)c2ccc(NC(=O)Nc3ccc(-c4nc(N5CCOCC5)nc(N5CCOCC5)n4)cc3)cc2)CC1` [PF-384, 1-(4-{[4-(dimethylamino)piperidin-1-yl]carbonyl}phenyl)-3-[4-(4,6-dimorpholin-4-yl-1,3,5-triazin-2-yl)phenyl]urea]: the IC50 – broadly, the midpoint of a concentration-inhibition curve – in series [2] is below 100 nM. In addition, the “concentration at which apoptosis was induced” value in the series with MDA-MB-361 was found to be 30 nM.
As for `CC(=O)O[C@H]1C(=O)[C@@]2(C)[C@H]([C@H](OC(=O)c3ccccc3)[C@]3(O)C[C@H](OC(=O)[C@H](O)[C@@H](NC(=O)c4ccccc4)c4ccccc4)C(C)=C1C3(C)C)[C@]1(OC(C)=O)CO[C@@H]1C[C@@H]2O` [paclitaxel], the “regressions / CRs by day 53” value in series [3] (paclitaxel 22.5 mg/kg) is reported as 6/10. Also, in series [3] (paclitaxel 10 mg/kg), the “antitumor activity of monotherapy” value was “no pronounced effect on tumor growth”.
`COc1ccc(-c2cc3c(C)nc(N)nc3n([C@H]3CC[C@H](OCCO)CC3)c2=O)cn1` [Compound 1A, 2-amino-8-[trans-4-(2-hydroxyethoxy)cyclohexyl]-6-(6-methoxypyridin-3-yl)-4-methylpyrido[2,3-d]pyrimidin-7(8H)-one]: the “concentration up to which no significant inhibitory activity was observed for any of the evaluated kinases” value in series [4] is above 10 µM. Besides, the clearance entry in series [5] was “low clearance”. Moreover, the fraction unbound (as a rule, free concentration divided by total concentration) in “in vitro” turned out to be 0.202. The in vivo activity entry in series [6] is reported as “has in vivo activity”.
`O=C(NOC[C@H](O)CO)c1ccc(F)c(F)c1Nc1ccc(I)cc1F` [PD-901]: the “sensitivity of most of the cell lines to the single agent” value in series [1] is on record as “relatively insensitive”.

Source of the values: patent US10617670B2, “Synergistic auristatin combinations” (priority 2014, dated 2020).
